Data from patent publication US20030220524A1, “Sulfur containing compounds” (priority 2000, published 2003).

Legend:
[1] = system: NB-4 leukemic cell line; experiment: Fixed propidium iodide staining, flow cytometry; assay type: cell-based, human; details: 48 h
[2] = system: KK leukemic cell line; experiment: TUNEL, flow cytometry; assay type: cell-based, human; details: 48 h
Procedure: (§1) Adherent cell lines were plated at 35×10^4 cells/60 cm^2 dish the day before exposure to compound. Suspension cells were seeded at 25×10^4 cells/mL in a 6 well dish (Falcon) the day of exposure to compound. Mononucleated, T-cell depleted normal bone marrow cells were seeded at 50×10^4 cells/mL in a 6 well dish the day of exposure to compound. Cells were exposed to solvent control or approximate MTT50 and MTT30 concentrations of the compound. After 48 h of exposure to the compound, cells were harvested and fixed with a final concentration of 4% formaldehyde. Fixed cells were stored at −20° C. in 70% ethanol for no more than 5 days. Approximately 10^5 cells were pelleted and labeled with 0.02 mM Biotin-dUTP and 12.5 U TdT enzyme in a 1× reaction buffer (200 mM potassium cacodylate, 25 mM Tris-HCl, 25 μg/mL bovine serum albumin, pH 6.6), 2.5 mM CoCl2 and 0.01 mM dTTP (Roche Molecular Biochemicals, Laval, QC, Canada) for 45 min at 37° C. Samples were washed and incubated in 200 μL of 1:1000 fluorescein isothiocyanate (FITC)-conjugated avidin (Sigma) in 4×SSC, 5% skim milk powder and 0.05% Tween-20 (Sigma). Following 1 h of mixing at room temperature, the samples were washed and resuspended in 500 μL of D-PBS containing 2.5 μg/mL DNase-free RNase (Boehringer Mannheim) and 10 μg/mL PI. Following a 30 min incubation at room temperature, cells were analyzed using a XL-MCL flow cytometer (Coulter Corporation, Miami, Fla.) and a FACScalibar cytometer (Becton Dickinson, San Jose, Calif.). Profiles shown are representative of one experiment.
as §1, with “? s” for “Cells”, “appr ? nate” for “approximate”, “of” for “of the”, “Pl.” for “PI.”

Row | SMILES | % pre-G1 (Fixed PI) ([1]; cell line printed NBA, dose 20 uM) | % pre-G1 (Fixed PI) ([1]; cell line printed NBA, dose 40 uM) | % pre-G1 (Fixed PI) ([1]; NB-4, dose 50 uM) | % pre-G1 (Fixed PI) ([1]; NB-4, dose 150 uM) | % TUNEL +ve ([2]; dose 50 uM) | % TUNEL +ve ([2]; dose 100 uM) | % TUNEL +ve ([2]; dose 25 uM)
1 | CSSc1ccc([N+](=O)[O-])cc1 [M, methyl p-nitrophenyl disulphide] | 16% | 60% | – | – | – | – | –
2 | CSSCC(=O)c1ccccc1 [Compound P, phenacyl methyl disulphide] | – | – | 18% | 75% | 47% | 78% | –
3 | CCC(=O)OCSSc1ccccc1 [Compound Q, 1-phenyl-1,2-dithiapropyl propionate] | – | – | – | – | 61% | – | 43%
